In article PMC12595484, “Optimizing multifunctional fluorescent ligands for intracellular labeling” (Proceedings of the National Academy of Sciences of the …, 2025):
Read-outs that look alike come from different tables or passages of the source.

Assay: Determination of logD7.4 (miniaturized shake flask, octanol–PBS)
Assay type: physicochemical
Protocol: Detailed descriptions of the materials and methods are provided in the supporting information. Multifunctional rhodamine–HaloTag ligands (13HTL–16HTL and 18HTL–20HTL) were synthesized using palladium-catalyzed cross-coupling reactions to install 3-carboxyazetidine moieties onto rhodamine scaffolds, followed by amide bond formation with biotin–PEG2–NH2, (S)-JQ1–PEG2–NH2, or (R)-JQ1–PEG2–NH2. Spectroscopic properties (λabs, λem, ε, and Φf) were determined in 10 mM HEPES, pH 7.3. The lactone–zwitterion equilibrium constants (KL–Z) were measured in 1:1 (v/v) dioxane–water mixtures. Octanol–water distribution coefficients (logD7.4) were determined by miniaturized shake-flask partitioning experiments using PBS (pH 7.4) and 1-octanol. Cell culture experiments employed HEK293T, U2OS, and Neuro2a cells transfected with HaloTag fusion constructs and labeled with ligands (100 nM to 1 μM, 0.5 to 2 h at 37 °C), followed by fluorescence microscopy using confocal or lattice light-sheet microscopy. Affinity purification studies utilized streptavidin magnetic beads to capture biotin-labeled HaloTag conjugates, with analysis by SDS-PAGE and in-gel fluorescence detection. […]
Reported values are averages of at least two measurements.
Determination of logD7.4. The log of distribution coefficients at pH 7.4 was determined in octanol–phosphate-buffered saline (PBS) using a miniaturized shake flask setup described previously.6, 7 Briefly, 150 mL each of octanol and PBS pH 7.4 were stirred vigorously for 12–16 h. The layers were allowed to stand for at least 24 h for phase separation. The separated layers were collected and served as PBS saturated with octanol (PBS*) and octanol saturated with PBS (octanol*). Stock solutions (1 mM or 5 mM) of ligands were prepared in DMSO and diluted in PBS* to obtain 1 μM or 10 μM (3–5 mL) of the standard (std). This standard was used to prepare appropriate dilutions using octanol*, in triplicate, in 2-mL glass vials. The leftover standard was used to determine the standard concentration (Cstd). The vials were vortexed for 1 min and shaken horizontally at 700 rpm for 2 h. The vials were then shaken upright at 150 rpm for 2 h to allow the phases to separate. The octanol* layer was pipetted out, and the PBS* layer was used for further analyses. The concentrations of ligands in the standard and PBS* (CPBS*) were determined via fluorescence measurements of 200 μL of PBS* or std in 96-well plates on the Cytation 5 Multimode Plate Reader (BioTek). For Si-rhodamine containing ligands, 2–20 μL of […]
trifluoroacetic acid was added to each well of the 96-well plate prior to the fluorescence measurements. Reported values are averages of at least two measurements. The logD7.4 was obtained as described previously using equation 2: logD = log *’(" × r − 1. +)*+∗ / (2) […]
where Cstd is the standard concentration in PBS, CPBS* is the concentration in PBS after partitioning, r is the dilution factor of the standard solution, VPBS* is the volume of PBS used in the partitioning, and Voctanol* is the volume of octanol used in the partitioning.
Plasmid construction for mitochondria imaging and affinity purification. HaloTag, amplified from the pHTC HaloTag CMV-neo Vector (Promega; G7711) and monomeric-superfolder green fluorescent protein (msGFP; lab stock), was fused to the mitochondrial targeting signal from OMP25,8 interspacing flexible GS(GSS)4 linkers between each domain by PCR Splicing by Overlap Extension (SOE). This construct was subcloned into hSynapsin promoter bearing a copy of FUGW.9 FUGW was a gift from David Baltimore (Addgene plasmid # 14883; RRID:
Addgene_14883).10 This construct was designated as pF(UG) hSyn HaloTag-TEV-4×GS-msGFP- […]
HEK293T cell culture. HEK293T cells (ATCC) were passaged before 80% confluency by trypsinization (Corning; 25-053-CI) and trituration. The cell suspension was then plated on glass coverslips (Warner instruments; 64-0734, CS-18R17) coated with poly-D-lysine (Thermofisher; […]

[1] = 1-octanol/PBS, octanol–PBS pH 7.4, miniaturized shake flask, read-out: logD7.4

logD [1]	Structure (SMILES)	logD (pH 7.4)
–	C[Si]1(C)c2cc(N3CC(F)C3)ccc2C2(OC(=O)c3ccc(C(=O)NCCOCCOCCCCCCCl)cc32)c2ccc(N3CC(F)C3)cc21 [6HTL, JF635–HaloTag ligand, reference compound]	3.82
0.07	O=C(CCCCC1SCC2NC(=O)NC21)NCCOCCOCCNC(=O)C1C[N+](=c2ccc3c(-c4cc(C(=O)NCCOCCOCCCCCCCl)ccc4C(=O)[O-])c4ccc(N5CCC5)cc4oc-3c2)C1 (centres unmarked) [13HTL, biotin–JF549–HaloTag ligand]	–
2.63	CC1(C)C2=CC(=[N+]3CC(C(=O)NCCOCCOCCNC(=O)CCCC[C@@H]4SC[C@@H]5NC(=O)N[C@@H]54)C3)C=CC2=C(c2cc(C(=O)NCCOCCOCCCCCCCl)ccc2C(=O)[O-])c2ccc(N3CCC3)cc21 (some centres unmarked) [14HTL, biotin–JF608–HaloTag ligand]	–
–	C[Si]1(C)C2=CC(=[N+]3CC(C(=O)NCCOCCOCCNC(=O)CCCC[C@@H]4SC[C@@H]5NC(=O)N[C@@H]54)C3)C=CC2=C(c2cc(C(=O)NCCOCCOCCCCCCCl)ccc2C(=O)[O-])c2ccc(N3CCC3)cc21 (some centres unmarked) [15HTL, biotin–JF646–HaloTag ligand]	3.06
–	C[Si]1(C)C2=CC(=[N+]3CC(F)(C(=O)NCCOCCOCCNC(=O)CCCC[C@@H]4SC[C@@H]5NC(=O)N[C@@H]54)C3)C=CC2=C(c2cc(C(=O)NCCOCCOCCCCCCCl)ccc2C(=O)[O-])c2ccc(N3CC(F)C3)cc21 (some centres unmarked) [16HTL, biotin–JF635–HaloTag ligand]	3.6
